Tests used:
Assay in all cases: relative viability (nuclei count vs DMSO), 5 days (fraction); higher = more cells survive
[1] = compound: Cc1cnc(-c2cnc(NCCNc3ccc(C#N)cn3)nc2-c2ccc(Cl)cc2Cl)[nH]1
How it was run: (§1)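 Lung cancer cell lines received five library-drug doses (not always all listed) spaced by √10, pinned on vehicle-anchored 1536-well plates after an overnight stay at 37 °C. Five days later, with no medium change, nuclei were Hoechst-stained, imaged at 4× and counted with MetaXpress. Viability is treated-well nuclei relative to vehicle-well nuclei, as a median across plates. Passing plates had control CV below 25% and at least one doubling.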

[2] = compound: CC(=O)O[C@@]12CO[C@@H]1C[C@H](O)[C@@]1(C)C(=O)[C@H](O)C3=C(C)[C@@H](OC(=O)[C@H](O)[C@@H](NC(=O)OC(C)(C)C)c4ccccc4)C[C@@](O)([C@@H](OC(=O)c4ccccc4)[C@H]21)C3(C)C [Docetaxel]
How it was run: as §1

[3] = compound: COc1cc2nccc(Oc3ccc(NC(=O)Nc4cc(C)on4)c(Cl)c3)c2cc1OC [Tivozanib]
How it was run: as §1

[4] = compound: Cc1sc2c(c1C)C(c1ccc(Cl)cc1)=N[C@@H](CC(=O)OC(C)(C)C)c1nnc(C)n1-2 [JQ1]
How it was run: as §1

[5] = compound: O=C(O)CCCCC(CCSCc1ccccc1)SCc1ccccc1 [CPI-613]
How it was run: as §1

[6] = compound: Nc1ccn([C@@H]2O[C@H](CO)[C@@H](O)[C@@H]2O)c(=O)n1 [Cytarabine]
How it was run: as §1

[7] = compound: O=c1[nH]c2ccccc2n1C1CCN(CCCC(c2ccc(F)cc2)c2ccc(F)cc2)CC1 [Pimozide]
How it was run: as §1

Row | Cell Line | relative viability ([1]; 0.08 µM) | relative viability ([1]; 0.253 µM) | relative viability ([1]; 0.8 µM) | relative viability ([1]; 2.53 µM) | relative viability ([2]; 0.0002 µM) | relative viability ([2]; 0.000632 µM) | relative viability ([2]; 0.002 µM) | relative viability ([2]; 0.006325 µM) | relative viability ([2]; 0.02 µM) | relative viability ([3]; 0.005 µM) | relative viability ([3]; 0.01581 µM) | relative viability ([3]; 0.05 µM) | relative viability ([3]; 0.1581 µM) | relative viability ([3]; 0.5 µM) | relative viability ([4]; 0.04 µM) | relative viability ([4]; 0.4 µM) | relative viability ([4]; 1.265 µM) | relative viability ([4]; 4 µM) | relative viability ([5]; 5 µM) | relative viability ([5]; 15.81 µM) | relative viability ([5]; 50 µM) | relative viability ([5]; 158.11 µM) | relative viability ([5]; 500 µM) | relative viability ([6]; 0.005 µM) | relative viability ([6]; 0.01581 µM) | relative viability ([6]; 0.05 µM) | relative viability ([6]; 0.1581 µM) | relative viability ([6]; 0.5 µM) | relative viability ([7]; 0.08 µM) | relative viability ([7]; 0.253 µM) | relative viability ([7]; 0.8 µM) | relative viability ([7]; 2.53 µM) | relative viability ([7]; 8 µM) | relative viability ([4]; 0.1265 µM)
1 | HCC-366 | 1.04 | 0.928 | 0.968 | 0.925 | 0.946 | 0.631 | 0.14 | 0.0335 | 0.03 | 0.982 | 0.98 | 1.02 | 1.02 | 0.992 | 1.05 | 1.08 | 0.693 | 0.325 | 1.02 | 1.04 | 1.09 | 0.413 | 0.0138 | 1.01 | 0.974 | 0.884 | 0.337 | 0.11 | 0.978 | 1.01 | 0.967 | 0.992 | 0.972 | 
2 | HCC-827 | 1.05 |  | 1.02 | 1.02 | 0.943 | 1.07 | 0.916 | 0.431 | 0.328 | 1.01 | 1.05 | 1.1 | 1.09 | 1 | 1.05 | 0.988 | 1.11 | 0.883 | 0.993 | 1.02 | 1.11 | 0.908 | 0.669 | 0.765 | 0.568 | 0.417 | 0.225 | 0.196 |  | 1.04 | 0.955 | 1.02 | 1.01 | 
3 | HOP-62 | 0.989 | 0.826 | 1.02 | 0.942 | 0.969 | 0.759 | 0.543 | 0.289 | 0.184 | 1.01 | 1.03 | 1.09 | 0.936 | 0.978 | 0.999 | 0.662 | 0.29 | 0.153 | 0.978 | 0.936 | 1 | 0.833 | 0.643 | 0.848 | 0.636 | 0.431 | 0.159 | 0.104 | 1.04 | 0.947 | 0.646 | 0.994 | 0.981 | 0.808
4 | IA-LM | 1.02 | 0.8 | 1.02 | 0.916 | 0.704 | 0.231 | 0.131 | 0.0652 | 0.0513 | 0.865 | 1.01 | 0.909 | 0.767 | 0.845 | 0.907 | 0.165 | 0.11 | 0.085 | 0.818 | 0.779 | 0.85 | 0.525 | 0.671 | 0.962 | 0.814 | 0.662 | 0.38 | 0.226 | 0.951 | 1.02 | 0.929 | 1.02 | 0.966 | 0.419
5 | LC-2-ad | 1.03 |  | 0.824 | 0.982 | 0.653 | 0.46 | 0.328 | 0.282 | 0.202 | 0.975 | 0.995 | 0.928 | 0.815 | 0.569 | 0.996 | 0.545 | 0.31 | 0.286 | 0.876 | 0.924 | 0.968 | 0.392 | 0.029 | 0.832 | 0.856 | 0.778 | 0.487 | 0.296 | 0.942 | 0.894 | 0.82 | 0.974 | 0.897 | 0.462
6 | LCLC-97TM1 | 0.977 | 0.846 | 0.907 | 0.908 | 0.88 | 0.617 | 0.3 | 0.104 | 0.0757 | 0.953 | 1.04 | 1.05 | 0.927 | 0.919 | 1 | 0.803 | 0.491 | 0.194 | 0.964 | 0.993 | 0.985 | 0.97 | 0.629 | 0.99 | 0.787 | 0.296 | 0.143 | 0.129 | 0.984 | 0.906 | 0.916 | 0.953 | 0.653 | 0.759
7 | LCLC-103H | 1.03 | 0.865 | 0.989 | 0.952 | 0.973 | 1.09 | 0.903 | 0.502 | 0.458 | 0.996 | 0.995 | 1.06 | 0.982 | 0.994 | 0.979 | 0.906 | 0.658 | 0.427 | 0.999 | 0.95 | 0.99 | 0.854 | 0.773 | 0.912 | 0.991 | 1.01 | 0.965 | 0.894 | 0.975 | 0.905 | 0.911 | 0.969 | 0.963 | 0.83
8 | LK-2 | 1.14 | 0.941 | 0.995 | 1.15 | 0.921 | 0.771 | 0.27 | 0.208 | 0.144 | 1.05 | 0.962 | 0.937 | 0.834 | 0.784 | 0.942 | 0.497 | 0.236 | 0.218 | 0.943 | 0.953 | 1.16 | 1 | 0.929 | 0.797 | 0.604 | 0.414 | 0.259 | 0.212 | 0.965 | 0.93 | 0.843 | 0.808 | 1.06 | 0.907
9 | LOU-NH91 | 1.01 | 0.924 | 0.94 | 0.976 | 0.898 | 0.758 | 0.473 | 0.369 | 0.354 | 0.865 | 1.04 | 0.982 | 0.814 | 0.945 | 0.989 | 0.637 | 0.626 | 0.462 | 0.926 | 0.951 | 0.982 | 0.913 | 0.842 | 0.955 | 0.918 | 0.723 | 0.7 | 0.584 | 0.785 | 0.924 | 0.916 | 1.04 | 0.896 | 0.801
10 | LU99A | 1.06 | 0.939 | 1.04 | 0.963 | 0.997 | 0.83 | 0.478 | 0.395 | 0.203 | 0.987 | 0.849 | 0.942 | 0.751 | 0.952 | 0.847 | 0.82 | 0.542 | 0.32 | 0.896 | 0.886 | 0.832 | 0.756 | 0.279 | 1.06 | 0.825 | 0.905 | 0.886 | 0.929 | 0.907 | 0.938 | 0.858 | 0.893 | 1 | 0.667
11 | LXF-289 | 1.01 | 0.864 | 1.06 | 1.1 | 1 | 0.731 | 0.473 | 0.171 | 0.128 | 0.998 | 0.935 | 0.996 | 1.1 | 0.956 | 0.984 | 0.981 | 0.936 | 0.671 | 0.922 | 0.958 | 0.992 | 0.78 | 0.0678 | 0.93 | 1 | 0.883 | 0.563 | 0.305 | 0.963 | 1 | 0.917 | 0.998 | 0.923 | 0.965
12 | NCI-H23 | 0.891 | 0.873 | 0.941 | 0.842 | 0.99 | 0.725 | 0.296 | 0.209 | 0.137 | 0.943 | 0.966 | 0.913 | 0.661 | 0.61 | 0.919 | 0.584 | 0.274 | 0.218 | 0.982 | 0.881 | 0.943 | 0.39 | 0.043 | 0.773 | 0.564 | 0.559 | 0.246 | 0.203 | 0.95 | 1.05 | 0.773 | 0.851 | 0.808 | 0.874
13 | NCI-H322M | 0.976 | 0.842 | 0.853 | 1.26 | 0.957 | 0.889 | 0.762 | 0.612 | 0.439 | 0.948 | 0.929 | 0.972 | 0.791 | 0.902 | 0.917 | 0.822 | 0.57 | 0.437 | 0.894 | 0.85 | 0.899 | 0.911 | 0.153 | 0.877 | 0.794 | 0.628 | 0.475 | 0.336 |  | 0.932 | 1.02 | 0.948 | 0.705 | 1.05
14 | NCI-H358 | 0.97 | 0.818 | 0.822 | 0.796 | 0.768 | 0.463 | 0.251 | 0.209 | 0.138 | 0.898 | 0.944 | 1.1 | 0.915 | 1.01 | 0.982 | 0.941 | 0.638 | 0.461 | 0.876 | 0.949 | 0.901 | 0.495 | 0.038 | 0.912 | 0.757 | 0.509 | 0.2 | 0.161 | 0.796 | 1.02 | 0.876 | 0.943 | 0.925 | 0.976
15 | NCI-H441 | 1.01 | 0.768 | 0.95 | 0.867 | 0.977 | 0.747 | 0.288 | 0.26 | 0.13 | 0.949 | 0.93 | 0.919 | 0.895 | 0.766 | 1.01 | 0.719 | 0.598 | 0.352 | 0.954 | 1.01 | 0.924 | 0.4 | 0.0254 | 0.962 | 0.973 | 0.965 | 0.365 | 0.367 | 1.12 | 0.9 | 0.804 | 0.883 | 0.776 | 0.813
16 | NCI-H460 | 1 | 0.911 | 0.981 | 0.883 | 0.949 | 0.806 | 0.288 | 0.0373 | 0.0295 | 0.985 | 1.06 | 0.989 | 1.03 | 0.965 | 0.97 | 0.593 | 0.353 | 0.197 | 0.973 | 0.97 | 1 | 0.66 | 0.515 | 0.962 | 0.894 | 0.256 | 0.0513 | 0.0345 | 1.01 | 0.95 | 0.964 | 0.913 | 0.922 | 0.617

From the supplement of paper PMC10307832
